How the values were obtained:
Format in all cases: biochemical
electric eel AChE = electric eel AChE (Electrophorus electricus, UniProt O42275); assay: Cholinesterase enzyme inhibition assay
hGSK-3β = hGSK-3β (Homo sapiens, UniProt P49841); assay: GSK-3β Kinase-Glo enzyme inhibition assay, with enzyme kinetics
horse serum BChE = horse serum BChE (Equus caballus, UniProt P81908); assay: Cholinesterase enzyme inhibition assay
[1] = molecular target: human recombinant β-secretase (BACE1) (Homo sapiens, UniProt P56817); assay: BACE1 FRET enzyme inhibition assay, with enzyme kinetics; conditions: IC50 BACE1, mean ± SD, triplicate
human recombinant β-secretase (BACE1), sequence (P56817 46-501): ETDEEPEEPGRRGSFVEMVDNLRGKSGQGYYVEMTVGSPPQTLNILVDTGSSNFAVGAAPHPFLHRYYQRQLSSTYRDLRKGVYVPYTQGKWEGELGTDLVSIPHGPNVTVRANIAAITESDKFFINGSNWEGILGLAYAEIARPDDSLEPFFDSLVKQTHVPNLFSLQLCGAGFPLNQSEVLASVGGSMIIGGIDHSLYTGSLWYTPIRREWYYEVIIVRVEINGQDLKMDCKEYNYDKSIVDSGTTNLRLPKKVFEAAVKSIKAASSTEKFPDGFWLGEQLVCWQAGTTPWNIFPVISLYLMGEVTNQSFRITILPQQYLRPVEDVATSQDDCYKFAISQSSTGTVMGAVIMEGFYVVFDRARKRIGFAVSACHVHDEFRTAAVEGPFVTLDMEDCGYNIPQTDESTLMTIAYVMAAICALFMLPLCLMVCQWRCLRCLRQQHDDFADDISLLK

horse serum BChE, sequence (P81908 whole entry): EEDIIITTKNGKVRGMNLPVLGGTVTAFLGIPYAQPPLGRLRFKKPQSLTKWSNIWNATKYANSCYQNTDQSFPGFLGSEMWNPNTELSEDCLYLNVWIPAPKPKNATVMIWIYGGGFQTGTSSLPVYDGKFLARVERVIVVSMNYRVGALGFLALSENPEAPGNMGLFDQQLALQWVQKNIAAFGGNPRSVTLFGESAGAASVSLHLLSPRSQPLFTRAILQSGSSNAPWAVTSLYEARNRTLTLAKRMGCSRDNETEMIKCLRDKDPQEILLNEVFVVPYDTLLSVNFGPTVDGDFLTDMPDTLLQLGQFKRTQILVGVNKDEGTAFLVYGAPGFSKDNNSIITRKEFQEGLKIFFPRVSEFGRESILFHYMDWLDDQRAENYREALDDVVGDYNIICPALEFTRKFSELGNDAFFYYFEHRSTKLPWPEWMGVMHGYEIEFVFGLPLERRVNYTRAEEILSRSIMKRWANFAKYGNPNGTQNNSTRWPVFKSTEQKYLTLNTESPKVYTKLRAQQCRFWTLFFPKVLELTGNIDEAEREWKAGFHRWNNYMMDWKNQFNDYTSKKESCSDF
hGSK-3β, sequence (P49841 whole entry): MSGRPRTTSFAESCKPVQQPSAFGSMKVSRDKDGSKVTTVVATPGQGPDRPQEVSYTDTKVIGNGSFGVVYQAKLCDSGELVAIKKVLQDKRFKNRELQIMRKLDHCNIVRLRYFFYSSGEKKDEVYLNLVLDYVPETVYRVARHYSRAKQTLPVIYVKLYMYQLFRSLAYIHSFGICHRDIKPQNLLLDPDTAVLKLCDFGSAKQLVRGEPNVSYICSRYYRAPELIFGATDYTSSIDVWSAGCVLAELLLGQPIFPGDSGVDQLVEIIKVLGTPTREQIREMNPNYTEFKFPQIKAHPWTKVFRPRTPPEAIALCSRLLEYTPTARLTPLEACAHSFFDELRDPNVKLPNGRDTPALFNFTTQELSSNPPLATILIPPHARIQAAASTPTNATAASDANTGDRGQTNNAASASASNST
electric eel AChE, sequence (O42275 24-633): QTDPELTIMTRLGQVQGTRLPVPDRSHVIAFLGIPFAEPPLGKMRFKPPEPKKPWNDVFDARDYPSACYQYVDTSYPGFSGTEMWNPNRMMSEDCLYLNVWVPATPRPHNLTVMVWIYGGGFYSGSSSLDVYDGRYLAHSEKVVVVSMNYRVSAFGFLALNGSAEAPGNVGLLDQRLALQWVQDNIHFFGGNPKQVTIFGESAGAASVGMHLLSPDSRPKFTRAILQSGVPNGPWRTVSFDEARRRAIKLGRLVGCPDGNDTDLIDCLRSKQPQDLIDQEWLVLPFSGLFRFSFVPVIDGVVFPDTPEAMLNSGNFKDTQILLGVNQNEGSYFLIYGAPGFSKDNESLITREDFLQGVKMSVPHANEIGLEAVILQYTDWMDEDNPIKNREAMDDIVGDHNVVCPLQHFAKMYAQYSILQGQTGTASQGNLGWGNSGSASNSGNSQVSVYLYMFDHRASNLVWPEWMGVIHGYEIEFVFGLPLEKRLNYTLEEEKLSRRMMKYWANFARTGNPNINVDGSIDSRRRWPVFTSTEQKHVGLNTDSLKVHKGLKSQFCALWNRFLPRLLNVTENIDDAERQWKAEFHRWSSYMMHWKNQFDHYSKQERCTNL

SMILES | IC50 (electric eel AChE) | IC50 (hGSK-3β) | IC50 (horse serum BChE) | IC50 [1]
CC(C)=CCC/C(C)=C/Cc1c(O)ccc2cc(-c3cc(O)cc(O)c3CC=C(C)C)oc12 [mulberrofuran D (1), mulberrofuran D] | 23 ± 1.15 µM | 8.12 ± 0.66 µM | 6.12 ± 1.41 µM | 
C[C@@]12C=C(c3c(O)cc(-c4cc5ccc(O)cc5o4)cc3O)C[C@@H](C1)c1ccc(O)cc1O2 [mulberrofuran H (3), mulberrofuran H] | > 200 µM | 4.41 ± 0.3 µM | 64.5 ± 3.1 µM | 1.04 ± 0.78 µM

Reference: paper PMC6649263 (ACS Omega, 2019)
